Counter-ions that a name gives are not always drawn. Like-named read-outs stand apart in the source and are kept apart here.
Key:
[1] = target: T1, 2-methylserotonin-induced contraction of the ileum (5-HT3 antagonism) (Cavia porcellus, UniProt O70212); assay: Antagonism against 2-methylserotonin-induced contraction or systole of ileum; type: cell-based, guinea pig (Hartley male); conditions: test compound added 30 minutes before 2-methylserotonin; nonterminal ileum, 37° C.; read-out: pA2 (converted)
T1 construct: from tissue; host or cells: isolated nonterminal ileum of male Hartley guinea pig
T1 sequence (O70212 20-490): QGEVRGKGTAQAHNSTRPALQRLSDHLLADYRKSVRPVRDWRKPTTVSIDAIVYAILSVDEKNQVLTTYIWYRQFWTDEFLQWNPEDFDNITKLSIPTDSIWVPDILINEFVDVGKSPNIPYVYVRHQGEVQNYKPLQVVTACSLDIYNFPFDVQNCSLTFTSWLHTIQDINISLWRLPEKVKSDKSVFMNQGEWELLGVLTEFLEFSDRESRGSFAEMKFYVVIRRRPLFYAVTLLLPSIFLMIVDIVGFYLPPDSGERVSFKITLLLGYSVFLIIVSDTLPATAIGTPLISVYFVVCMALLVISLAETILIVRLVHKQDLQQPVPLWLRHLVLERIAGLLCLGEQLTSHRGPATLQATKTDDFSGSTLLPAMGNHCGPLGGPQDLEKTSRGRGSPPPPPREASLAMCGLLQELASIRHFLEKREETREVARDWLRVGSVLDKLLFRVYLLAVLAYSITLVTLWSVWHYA
Experimental: Antagonism against 2-methylserotonin-induced contraction or systole of ileum
This experiment was made according to the method of Sanger et al. [see Eur. J. Pharmacol., 159, 113-124 (1989)]. The nonterminal ileum of a Hartley male guinea pig was suspended in the Krebs-Henseleit solution (37° C.) by applying a load of 0.5 g to the end of the ileum and a gaseous mixture comprising 95% of oxygen and 5% of carbon dioxide was passed through the solution. The contraction of the ileum was isometrically determined. After allowing the ileum to stand for one or more hours for stabilization, a solution of a test compound was added to the solution, and after 30 minutes, 2-methylserotonin was noncumulatively added. The pA2 value was calculated from the rightward shift of the dose-response curve of the 2-methylserotonin-induced contraction caused by the test compound according to the method of Rossum et al. [see Arch. Int. Pharmacodyn., 143, 299(1963)]. BRL 24682 was used as a control in this experiment.

[2] = system: cisplatin-induced vomiting; assay: Activity against cisplatin-induced vomiting of beagle; type: in vivo; conditions: intravenous, one hour after cisplatin 3 mg/kg, 5-hour observation
Experimental: Activity against cisplatin-induced vomiting of beagle
Beagles weighing 7 to 12 kg were used. 3 mg/kg of cisplatin (a product of Sigma) (1 ml/kg of physiological saline) was administered to each beagle through the vein of its forefoot. One hour after the administration of cisplatin, physiological saline (0.2 ml/kg) was administered to a control group of beagles and a solution of a test compound in physiological saline was administered to a test group of beagles, each through the vein of the other forefoot. The frequency of vomiting observed over a 5-hour period from the administration of cisplatin was recorded and the inhibitory ratio of the test compound was calculated according to the following formula.

[3] = system: gastric emptying function; assay: Activity for raising gastric emptying function; type: in vivo, Fischer male rats; conditions: oral (5 ml/kg), one hour before test food, versus control rat
Experimental: Activity for raising gastric emptying function
This experiment was made according to the method of Decktot et al. [see Eur. J. Pharmacol., 147, 313-316 (1988)]. Fischer male rats (weight: 160 to 180 g) were fasted for 18 hours before 3 ml of a test food comprising methylcellulose, beef broth, casein, sugar and corn starch was orally administered to each rat. One hour after the administration, the stomach was extirpated from each rat. The gastric emptying ratio was calculated from the weight of the test food remaining in the stomach. The ratio of rise of the gastric emptying function was determined by comparing the gastiric emptying ratio of a medicated rat with that of a control rat which had not administered any test compounds. Each test compound (5 ml/kg) was orally administered one hour before the administration of the test food. BRL 24682 was used as a control in this experiment.

[4] = system: contraction of guinea pig ileum induced by electrical field stimulation (acetylcholine release); assay: Effect of increasing contraction of guinea pig ileum induced by electrical field stimulation; type: cell-based; conditions: electrical field stimulation once per 10 seconds, cumulative addition at intervals of 10 minutes, 37° C., read-out: Min. concn. causing increment of ileal contraction
Experimental: Effect of increasing contraction of guinea pig ileum induced by electrical field stimulation
This experiment was made according to the method of Sanger et al. [see Br. J. Pharmacol., 91, 77-87 (1987)]. The longitudinal muscle of the nonterminal ileum of a guinea pig was separated and vertically suspended in the Krebs-Henseleit solution (37° C.) in a Magnus tube by applying a load of 0.5 g to the end of the muscle. A mixed gas comprising 95% of oxygen and 5% of carbon dioxide was passed through the solution. The contraction of the muscle was isometrically determined. Electrical field stimulation was applied to the muscle by the use of a platinum electrode once per 10 seconds to induce the contraction of the muscle. The contraction was caused through the release of acetylcholine. After the muscle had been stabilized, a solution of a test compound was cumulatively added into the Magnus tube at intervals of 10 minutes. The effect of the test compound is represented by percentage based on the initial contraction. The minimum concentration of each test compound at which an increment was found in the contraction due to the release of acetylcholine is shown in Table 4.

rat = assay: Oral toxicity in rat, one week; type: in vivo; conditions: dose of up to 30 mg/kg
[5] = listed as 42 (+)-isomer, hydrochloride
[6] = listed as 43 (-)-isomer, hydrochloride

| Compound | Kb [1] | Inhibitory ratio against cisplatin-induced vomiting ([2]; 0.03 mg/kg) | Inhibitory ratio against cisplatin-induced vomiting ([2]; 0.1 mg/kg) | Ratio of rise of gastric emptying function [3, 5] | minimal effective concentration [4, 5] | Ratio of rise of gastric emptying function [3] | minimal effective concentration ([4]; listed as 4 (+)-isomer, hydrochloride) | toxicity on oral administration for one week (rat) | Ratio of rise of gastric emptying function [3, 6] | minimal effective concentration [4, 6] | Inhibitory ratio against cisplatin-induced vomiting ([2]; 0.3 mg/kg) | minimal effective concentration ([4]; Cavia porcellus, 10 min) |
| --- | --- | --- | --- | --- | --- | --- | --- | --- | --- | --- | --- | --- |
| C#CCC(C)Oc1cc(N)c(Cl)cc1C(=O)N[C@H]1C[C@H]2CC[C@@H](C1)N2C (single isomer, unassigned; (+)) [Example 42, (+)-endo-4-Amino-5-chloro-N-(8-methyl-8-azabicyclo[3.2.1]oct-3-yl)-2-{(4-pentyn-2-yl)oxy}benzamide hydrochloride] | 1.2 nM | 59% | 92% | 22.2% | 0.086 µM | – | – | – | – | – | – | – |
| CC#CC(C)Oc1cc(N)c(Cl)cc1C(=O)N[C@H]1C[C@H]2CC[C@@H](C1)N2C (single isomer, unassigned; (-)) [Example 4, (-)-endo-4-Amino-5-chloro-N-(8-methyl-8-azabicyclo[3.2.1]oct-3-yl)-2-{(3-pentyn-2-yl)oxy)benzamide hydrochloride] | 2.69 nM | 37% | 78% | – | – | 31.1% | 0.056 µM | no toxicity was exhibited in a dose of up to 30 mg/kg | – | – | – | – |
| C#CCC(C)Oc1cc(N)c(Cl)cc1C(=O)N[C@H]1C[C@H]2CC[C@@H](C1)N2C (single isomer, unassigned; (-)) [Example 43, (-)-endo-4-Amino-5-chloro-N-(8-methyl-8-azabicyclo[3.2.1]oct-3-yl)-2-{(4-pentyn-2-yl)oxy}benzamide hydrochloride] | – | – | – | – | – | – | – | no toxicity was exhibited in a dose of up to 30 mg/kg | 12.9% | 0.47 µM | – | – |
| C#CCOc1cc(N)c(Cl)cc1C(=O)N[C@H]1C[C@H]2CC[C@@H](C1)N2C [Example 21, endo-4-Amino-5-chloro-(8-methyl-8-azabicyclo[3.2.1]oct-3-yl)-2-propargyloxybenzamide hydrochloride] | 3.47 nM | – | – | – | – | 18.9% | – | – | – | – | 100% | 0.052 µM |
| CC(Oc1cc(N)c(Cl)cc1C(=O)N[C@H]1C[C@H]2CC[C@@H](C1)N2C)C1CCCC1 (stereo partly drawn) [Example 32, endo-4-Amino-5-chloro-2-(1-cyclopentylethoxy)-N-(8-methyl-8-azabicyclo[3.2.1]oct-3-yl)benzamide hydrochloride] | 0.933 nM | – | – | – | – | 18.3% | – | – | – | – | – | > 100 µM |

— patent publication US5389643A, “Aminobenzoic acid derivatives useful for treating gastro-intestinal conditions” (Eisai Co., Ltd., priority 1992, dated 1995)
